# Assay results from US20150094364A1, “METHOD OF USING THEAFLAVIN” (priority 2013, published 2015).
# Where “and” joins values, the source holds several entries; their conditions need not be identical. Equal values may be shown once.
# Legend:
# Format in all cases: in vivo, Wistar rats
# [1] = system: Rats overdosed with ethanol (experimental model for human ALD); assay: Liver markers MDA, GSH and TG in ethanol-fed rats (ALD model); details: for GSH / MDA / TG: rat liver, ethanol 30 days
# Procedure: (§1) 6-week old male rats (Wistar rats) were stabilized and then divided into 5 groups with 10 rats per group (n=10). Rats overdosed with ethanol were used as an experimental model for human ALD. Four groups of rats were fed with ethanol at a dose of 6000 mg/kg BW (50% ethanol at 12 ml/kg BW) per day for 30 days. These four groups were divided into positive control, theaflavin (low), theaflavin (mid), and theaflavin (high). Theaflavin (capsule, Xiayie) was also fed to rat at a dose of 83 mg/kg BW (low), 250 mg/kg (mid), and 500 mg/kg (high). In addition, Fifth group was fed with water as a negative control. Animals were sacrificed after the 30-day study and livers were collected for further analyses.
# Three liver markers, i.e., malondialdehyde (MDA, a marker of oxidative stress), glutathione (GSH), and triglyceride (TG) were measured.
# [2] = Body weight, liver weight and liver/body ratio in ethanol-fed rats (ALD model); details: ethanol 6000 mg/kg BW per day; for Liver Weight / Liver body ratio: 30 days; for BW (ending): end of 30-day study
# Procedure: as §1
# [3] = system: Rats overdosed with ethanol (experimental model for human ALD); assay: Liver histopathology (liver cell fat rating, fat color rating) in ethanol-fed rats (ALD model); set-up: Liver cell fat rating / Liver cell fat rating, sum / Fat color rating: scale not given here; details: for Fat color rating: n=10; for Liver cell fat rating: individual animals (ID 1-10); for Liver cell fat rating, sum: sum of 10 animals
# Procedure: as §1
structure (smiles),measurement,setting,value
"O=c1c(O)cc([C@H]2Oc3cc(O)cc(O)c3C[C@H]2O)cc2c([C@H]3Oc4cc(O)cc(O)c4C[C@H]3O)cc(O)c(O)c12 [Theaflavin, theaflavin]",GSH,[1]; 83 mg/kg BW theaflavin,13.86 ± 1.80 mg/g
same,MDA,[1]; 83 mg/kg BW theaflavin,1.32 ± 0.13 nmol/mg
same,TG,[1]; 83 mg/kg BW theaflavin,0.62 ± 0.21 mmol/L
same,GSH,[1]; 250 mg/kg BW theaflavin,13.91 ± 1.66 mg/g
same,MDA,[1]; 250 mg/kg BW theaflavin,1.24 ± 0.49 nmol/mg
same,TG,[1]; 250 mg/kg BW theaflavin,0.65 ± 0.14 mmol/L
same,GSH,[1]; 500 mg/kg BW theaflavin,14.43 ± 0.69 mg/g
same,MDA,[1]; 500 mg/kg BW theaflavin,1.23 ± 0.08 nmol/mg
same,TG,[1]; 500 mg/kg BW theaflavin,0.64 ± 0.13 mmol/L
same,MDA when compared to positive controls,[1]; theaflavin (high) 500 mg/kg,lower
same,TG when compared to positive controls,[1]; theaflavin (high) 500 mg/kg,lower
same,MDA when compared to positive controls,[1]; theaflavin (mid) 250 mg/kg,lower
same,TG when compared to positive controls,[1]; theaflavin (mid) 250 mg/kg,lower
same,Liver Weight,[2]; 83 mg/kg BW theaflavin,9.19 ± 0.88 g
same,Liver body ratio,[2]; 83 mg/kg BW theaflavin,2.79 ± 0.22%
same,BW (ending),[2]; 83 mg/kg BW theaflavin,329.1 ± 19.17 g
same,BW (intermediate),[2]; 83 mg/kg BW theaflavin,256.1 ± 21.23 g
same,Liver Weight,[2]; 250 mg/kg BW theaflavin,9.83 ± 1.12 g
same,Liver body ratio,[2]; 250 mg/kg BW theaflavin,2.86 ± 0.23%
same,BW (ending),[2]; 250 mg/kg BW theaflavin,342.9 ± 21.99 g
same,BW (intermediate),[2]; 250 mg/kg BW theaflavin,266.3 ± 17.10 g
same,Liver Weight,[2]; 500 mg/kg BW theaflavin,10.34 ± 1.32 g
same,Liver body ratio,[2]; 500 mg/kg BW theaflavin,2.84 ± 0.27%
same,BW (ending),[2]; 500 mg/kg BW theaflavin,365.2 ± 44.39 g
same,BW (intermediate),[2]; 500 mg/kg BW theaflavin,272.3 ± 17.27 g
same,Fat color rating,[3]; 83 mg/kg BW theaflavin,1.60 ± 0.70
same,Fat color rating,[3]; 250 mg/kg BW theaflavin,1.40 ± 0.70
same,Fat color rating,[3]; 500 mg/kg BW theaflavin,1.30 ± 0.82
same,Liver cell fat rating,"[3]; theaflavin (high) 500 mg/kg, 500 mg/kg",1 (6×) and 0 and 3 and 2 (2×)
same,Liver cell fat rating,"[3]; theaflavin (low) 83 mg/kg BW, 83 mg/kg",1 (5×) and 3 and 2 (4×)
same,Liver cell fat rating,"[3]; theaflavin (mid) 250 mg/kg, 250 mg/kg",1 (4×) and 0 and 2 (5×)
same,"Liver cell fat rating, sum",[3]; theaflavin (high) 500 mg/kg,13
same,"Liver cell fat rating, sum",[3]; theaflavin (low) 83 mg/kg BW,16
same,"Liver cell fat rating, sum",[3]; theaflavin (mid) 250 mg/kg,14
same,Fat color rating compared to positive control,[3]; theaflavin (high) 500 mg/kg,different readings
same,Liver cell fat rating compared to positive control,[3]; theaflavin (high) 500 mg/kg,different readings
same,Fat color rating compared to positive control,[3]; theaflavin (mid) 250 mg/kg,different readings
same,Liver cell fat rating compared to positive control,[3]; theaflavin (mid) 250 mg/kg,different readings
